The target in the assay is T1, human TLR7 (Homo sapiens, UniProt Q9NYK1).
T1 construct: host or cells: HEK293 (HEK-Blue hTLR7)
T1 sequence (Q9NYK1 27-1049): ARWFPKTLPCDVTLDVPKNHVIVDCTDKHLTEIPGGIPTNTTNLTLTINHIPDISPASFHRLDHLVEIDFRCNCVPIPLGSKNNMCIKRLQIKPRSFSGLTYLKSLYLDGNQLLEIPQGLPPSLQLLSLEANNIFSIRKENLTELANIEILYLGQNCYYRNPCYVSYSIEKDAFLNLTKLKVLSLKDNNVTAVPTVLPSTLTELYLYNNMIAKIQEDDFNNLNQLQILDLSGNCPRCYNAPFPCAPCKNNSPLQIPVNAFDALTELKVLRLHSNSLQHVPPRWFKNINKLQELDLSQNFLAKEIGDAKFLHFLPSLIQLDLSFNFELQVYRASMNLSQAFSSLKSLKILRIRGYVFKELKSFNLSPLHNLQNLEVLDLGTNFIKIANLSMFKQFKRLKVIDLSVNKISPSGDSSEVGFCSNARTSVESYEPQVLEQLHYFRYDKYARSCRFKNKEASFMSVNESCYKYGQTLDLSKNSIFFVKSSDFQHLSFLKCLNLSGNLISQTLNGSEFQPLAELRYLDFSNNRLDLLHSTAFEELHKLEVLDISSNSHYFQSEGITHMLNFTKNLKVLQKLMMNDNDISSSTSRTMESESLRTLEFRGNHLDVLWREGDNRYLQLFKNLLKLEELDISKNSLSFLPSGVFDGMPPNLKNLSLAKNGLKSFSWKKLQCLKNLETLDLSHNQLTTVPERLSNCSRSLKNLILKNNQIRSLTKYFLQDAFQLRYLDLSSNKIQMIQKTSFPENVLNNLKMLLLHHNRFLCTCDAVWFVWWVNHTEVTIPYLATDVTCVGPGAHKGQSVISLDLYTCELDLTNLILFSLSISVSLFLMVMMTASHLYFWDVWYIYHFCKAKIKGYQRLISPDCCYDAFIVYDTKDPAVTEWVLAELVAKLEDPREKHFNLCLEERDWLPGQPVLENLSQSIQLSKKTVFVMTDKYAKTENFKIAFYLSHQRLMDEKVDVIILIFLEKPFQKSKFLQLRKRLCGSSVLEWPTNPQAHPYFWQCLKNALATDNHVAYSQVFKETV
Put plainly: HEK293-Blue-hTLR-7 cells assay (SEAP reporter, R848 stimulation). Conditions: HEK293-Blue-hTLR7 cells, R848, 20 hrs; read-out: HEK/hTLR7 IC50. It counts as cell-based. The method in brief: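 HEK293-Blue-hTLR7 cells (NF-κB/AP-1-driven SEAP reporter) were stimulated with R848 alongside serially diluted compound at 1% final DMSO for 20 h at 37 °C. Supernatant SEAP was then developed with QUANTI-Blue for 2 h at 37 °C and absorbance read at 620–655 nm; antagonism is measured as reduced reporter signal.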
For `Cc1cc(N2CCN(C[C@H]3CN(c4ccc(C#N)c5ncccc45)C[C@@H](C)O3)CC2)nc(N2CCNCC2)n1` [Example 47, 5-[(2R,6S)-2-methyl-6-[[4-(6-methyl-2-piperazin-1-yl-pyrimidin-4-yl)piperazin-1-yl]methyl]morpholin-4-yl]quinoline-8-carbonitrile], the IC50 worked out at 13 nM.

As to `C[C@@H]1CN(c2ccc(C#N)c3ncccc23)C[C@H](CN2CCN(c3ncc(C#N)c(N4CCNCC4)n3)CC2)O1` [Example 51, 5-[(2S,6R)-2-[[4-(5-cyano-4-piperazin-1-yl-pyrimidin-2-yl)piperazin-1-yl]methyl]-6-methyl-morpholin-4-yl]quinoline-8-carbonitrile], the IC50 was found to be 28 nM.

`COC1CN(c2ccc(C3CN(C[C@H]4CN(c5cc(=O)n(C)c6ncccc56)C[C@@H](C)O4)C3)cc2)C[C@H]1N` (stereo in doubt) [Example 172, 4-[(2S,6R)-2-[[3-[4-[(3R,4R)-3-amino-4-methoxy-pyrrolidin-1-yl]phenyl]azetidin-1-yl]methyl]-6-methyl-morpholin-4-yl]-1-methyl-1,8-naphthyridin-2-one]: the IC50 was 41 nM.

Regarding `C[C@@H]1CN(c2ccc(C#N)c3ncccc23)C[C@H](CN2CCN(c3cccc(N4CCNCC4)n3)CC2)O1` [Example 10, 5-[(2R,6S)-2-methyl-6-[[4-(6-piperazin-1-yl-2-pyridyl)piperazin-1-yl]methyl]morpholin-4-yl]quinoline-8-carbonitrile], the IC50 came out at 33 nM.

Turning to `C[C@@H]1CN(c2ccc(C#N)n3ncc(F)c23)C[C@H](CN2CCN(c3ccc(C4CNCCO4)cc3F)CC2)O1` (stereo in doubt) [Example 183, 3-fluoro-4-[(2S,6R)-2-[[4-[2-fluoro-4-[(2S)-morpholin-2-yl]phenyl]piperazin-1-yl]methyl]-6-methyl-morpholin-4-yl]pyrazolo[1,5-a]pyridine-7-carbonitrile], the IC50 came out at 28 nM.

As to `C[C@@H]1CN(c2ccc(C#N)c3ncccc23)C[C@H](CN2CCN(c3cccc(N[C@H]4CNC[C@@H]4F)n3)CC2)O1` [Example 35, 5-[(2S,6R)-2-[[4-[6-[[(3S,4S)-4-fluoropyrrolidin-3-yl]amino]-2-pyridyl]piperazin-1-yl]methyl]-6-methyl-morpholin-4-yl]quinoline-8-carbonitrile], the IC50 was 65 nM.

As for `COC1CN(c2nccc(N3CCN(C[C@H]4CN(c5ccc(C#N)c6ncccc56)C[C@@H](C)O4)CC3)n2)C[C@H]1N` (stereo in doubt) [Example 52, 5-[(2S,6R)-2-[[4-[2-[(3R,4R)-3-amino-4-methoxy-pyrrolidin-1-yl]pyrimidin-4-yl]piperazin-1-yl]methyl]-6-methyl-morpholin-4-yl]quinoline-8-carbonitrile], the IC50 was 15 nM.

With `C[C@@H]1CN(c2ccc(C#N)n3ncc(F)c23)C[C@H](CN2CCN(c3ccc(C4(C)CNCCO4)cc3)CC2)O1` (stereo partly drawn) [Example 185, 3-fluoro-4-[(2R,6S)-2-methyl-6-[[4-[4-(2-methylmorpholin-2-yl)phenyl]piperazin-1-yl]methyl]morpholin-4-yl]pyrazolo[1,5-a]pyridine-7-carbonitrile], the IC50 is 39 nM.

Regarding `C[C@@H]1CN(c2ccc(C#N)c3ncccc23)C[C@H](CN2CCN(c3ccc([C@@H]4CNCCO4)cc3)CC2)O1` [Example 19, 5-[(2R,6S)-2-methyl-6-[[4-[4-[(2R)-morpholin-2-yl]phenyl]piperazin-1-yl]methyl]morpholin-4-yl]quinoline-8-carbonitrile], the IC50 came to 25 nM.

Regarding `CO[C@H]1CN(c2nccc(N3CCN(C[C@H]4CN(c5ccc(C#N)c6ncccc56)C[C@@H](C)O4)CC3)n2)CC1N` (stereo in doubt) [Example 53, 5-[(2S,6R)-2-[[4-[2-[(3S,4S)-3-amino-4-methoxy-pyrrolidin-1-yl]pyrimidin-4-yl]piperazin-1-yl]methyl]-6-methyl-morpholin-4-yl]quinoline-8-carbonitrile], the IC50 turned out to be 8 nM.

Take `C[C@@H]1CN(c2ccc(C#N)n3ncc(F)c23)C[C@H](CN2CCN(c3ccc(N4CCOC5(CNC5)C4)nc3)CC2)O1` [Example 178, 3-fluoro-4-[(2R,6S)-2-methyl-6-[[4-[6-(5-oxa-2,8-diazaspiro[3.5]nonan-8-yl)-3-pyridyl]piperazin-1-yl]methyl]morpholin-4-yl]pyrazolo[1,5-a]pyridine-7-carbonitrile]: the IC50 worked out at 38 nM.

As for `C[C@@H]1CN(c2ccc(C#N)c3ncccc23)C[C@H](CN2CCN(c3ccnc(N4CCN(C(=O)[C@@H]5CCCN5)CC4)n3)CC2)O1` [Example 31, 5-[(2R,6S)-2-methyl-6-[[4-[2-[4-[(2S)-pyrrolidine-2-carbonyl]piperazin-1-yl]pyrimidin-4-yl]piperazin-1-yl]methyl]morpholin-4-yl]quinoline-8-carbonitrile], the IC50 was determined as 18 nM.

Take `Cc1nc(N2CCNCC2)nc(N2CCN(C[C@H]3CN(c4ccc(C#N)c5ncccc45)C[C@@H](C)O3)CC2)c1C` [Example 46, 5-[(2S,6R)-2-[[4-(5,6-dimethyl-2-piperazin-1-yl-pyrimidin-4-yl)piperazin-1-yl]methyl]-6-methyl-morpholin-4-yl]quinoline-8-carbonitrile]: the IC50 was 18 nM.

As to `C[C@@H]1CN(c2cc(=O)n(C)c3ncccc23)C[C@H](CN2CC(c3ccc(N4CCNCC4)cc3)C2)O1` [Example 171, 1-methyl-4-[(2R,6S)-2-methyl-6-[[3-(4-piperazin-1-ylphenyl)azetidin-1-yl]methyl]morpholin-4-yl]-1,8-naphthyridin-2-one], the IC50 worked out at 38 nM.

For `C[C@@H]1CN(c2cc(=O)n(C)c3ncccc23)C[C@H](CN2CC(c3ccc(N4CC5(CN(C)C5)C4)cc3)C2)O1` [Example 180, 1-methyl-4-[(2R,6S)-2-methyl-6-[[3-[4-(6-methyl-2,6-diazaspiro[3.3]heptan-2-yl)phenyl]azetidin-1-yl]methyl]morpholin-4-yl]-1,8-naphthyridin-2-one], the IC50 worked out at 53 nM.

Consider `C[C@@H]1CN(c2ccc(C#N)c3ncccc23)C[C@H](CN2CCN(c3cc(N4CCN(C)CC4)ncn3)CC2)O1` [Example 21, 5-[(2R,6S)-2-methyl-6-[[4-[6-(4-methylpiperazin-1-yl)pyrimidin-4-yl]piperazin-1-yl]methyl]morpholin-4-yl]quinoline-8-carbonitrile], for which the IC50 was found to be 16 nM.

`Cc1cc(N2CCN(C[C@H]3CN(c4ccc(C#N)c5ncccc45)C[C@@H](C)O3)CC2)nc(N2CC3(CNCCO3)C2)n1` [Example 61, 5-[(2R,6S)-2-methyl-6-[[4-[6-methyl-2-(5-oxa-2,8-diazaspiro[3.5]nonan-2-yl)pyrimidin-4-yl]piperazin-1-yl]methyl]morpholin-4-yl]quinoline-8-carbonitrile]: the IC50 is 8 nM.

With `C[C@@H]1CN(c2ccc(C#N)c3ncccc23)C[C@H](CN2CCN(c3ccc(N4CC(N)C(F)C4)nc3)CC2)O1` (stereo partly drawn) [Example 44, 5-[(2S,6R)-2-[[4-[6-(3-amino-4-fluoro-pyrrolidin-1-yl)-3-pyridyl]piperazin-1-yl]methyl]-6-methyl-morpholin-4-yl]quinoline-8-carbonitrile], the IC50 came to 28 nM.

On to `C[C@@H]1CN(c2ccc(C#N)c3ncccc23)C[C@H](CN2CCN(c3nc(N4CCNCC4)nc4ccccc34)CC2)O1` [Example 49, 5-[(2R,6S)-2-methyl-6-[[4-(2-piperazin-1-ylquinazolin-4-yl)piperazin-1-yl]methyl]morpholin-4-yl]quinoline-8-carbonitrile], for which the IC50 worked out at 29 nM.

(Values after US20210395239A1 (Hoffmann-La Roche Inc., priority 2018, published 2021).)
